Here are results for 25 compounds from publication PMC11784839, “Monoaminergic neurotransmitters are bimodal effectors of tau aggregation” (Science Advances, 2025).

For this test, the target named is tau (Homo sapiens, UniProt P10636). The test is described as follows: MCE Phenols Library screening, tau biosensor cell seeding assay (AvZ). Conditions: for Z repl 1 / Z Repl 2: Z score; for Z repl 1 / raw data 1: replicate 1; for Z Repl 2 / raw data 2: replicate 2; for AvZ (average z score of seeding, SDs from the mean level of seeding): 10 μM phenol in cell cultures, AD brain homogenate preincubated 16 hours, two biological replicates, positive = catalyzes seeding, negative = inhibits. The test is classed as cell-based.

Where [1] appears, read: average Z score of two replicates, Phenols Library screen.
The mark [2] stands for this setting: average Z score of the two replicates, MCE Phenols Library screen.
The mark [3] stands for this setting: average puncta of the two replicates.
[4] abbreviates: average Z score of the two replicates, tau seeding.
The mark [5] stands for this setting: average Z score of the two replicates, tau biosensor seeding, MCE Phenols Library screen.

Sequence of tau (P10636 623-695 limits assumed): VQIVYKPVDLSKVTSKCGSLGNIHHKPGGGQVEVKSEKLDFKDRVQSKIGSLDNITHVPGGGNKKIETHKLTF

Take `COc1cc(-c2cc(=O)c3c(O)c(OC)c(O)cc3o2)cc(O)c1OC`: the “Z repl 1” value stood at 0.062 and the “Z Repl 2” value is reported as -0.242. The “av Z” value under setting [1] is given as -0.09. Under “average of raw data 1 and 2”, this compound displayed an av puncta of 18635. Besides, for the setting “puncta”, the “raw data 1” value is listed as 27088.2 and the “raw data 2” value is listed as 10181.7.

Take `O=c1c(O[C@@H]2O[C@H](CO)[C@@H](O)[C@H](O)[C@H]2O)c(-c2ccc(O)c(O)c2)oc2cc(O[C@@H]3O[C@H](CO[C@@H]4O[C@H](CO)[C@@H](O)[C@H](O)[C@H]4O)[C@@H](O)[C@H](O)[C@H]3O)cc(O)c12`: the “Z repl 1” value is listed as -0.562 and the “Z Repl 2” value is listed as -0.434. For the same compound, the “av Z” value under setting [2] is listed as -0.498. The compound also returned an av puncta under setting [3] of 13864.9. Also, under “puncta”, the “raw data 1” value worked out at 19599.6 and the “raw data 2” value worked out at 8130.05.

`O=C(O)CC(=O)OC[C@H]1O[C@@H](Oc2c(-c3ccc(O)c(O)c3)oc3cc(O)cc(O)c3c2=O)[C@H](O)[C@@H](O)[C@@H]1O`: the “Z repl 1” value is given as -0.599 and the “Z Repl 2” value is -0.958. Besides, under setting [2], the “av Z” value was -0.779. Besides, the av puncta (average of raw data 1 and 2) is listed as 10843.5. Moreover, where the note is “puncta”, the “raw data 1” value is given as 19152.5 and the “raw data 2” value is on record as 2534.57.

For `COc1cc([C@@H]2OC[C@@H]3[C@H]2CO[C@H]3c2cc(OC)c(O[C@@H]3O[C@H](CO)[C@@H](O)[C@H](O)[C@H]3O[C@@H]3OC[C@](O)(CO)[C@H]3O)c(OC)c2)cc(OC)c1O`, the “Z repl 1” value stood at 0.189 and the “Z Repl 2” value stood at 0.95. Besides, the “av Z” value under setting [4] came out at 0.57. Where the note is “average of raw data 1 and 2”, this compound gave an av puncta of 25767.5. Also, for the setting “puncta”, the “raw data 1” value came to 28623.9 and the “raw data 2” value turned out to be 22911.

On to `OC[C@H]1O[C@@H](Oc2cc(O)cc(/C=C/c3ccc(O)cc3)c2)[C@H](O)[C@@H](O)[C@@H]1O` (mixture of isomers) [(E/Z)-Polydatin], for which the “Z repl 1” value was determined as 0.505 and the “Z Repl 2” value is reported as -0.119. Moreover, under setting [4], the “av Z” value was 0.193. This compound returned an av puncta (average of raw data 1 and 2) of 21956.3. Further, where the note is “puncta”, the “raw data 1” value came to 32412.5 and the “raw data 2” value is listed as 11500.1.

`CCC1(O)C(=O)OCc2c1cc1n(c2=O)Cc2cc3cc(O)ccc3nc2-1` (racemic) [(±)-10-Hydroxycamptothecin]: the “Z repl 1” value was 2.809 and the “Z Repl 2” value was 1.992. Under setting [5], the “av Z” value came to 2.4. Under “average of raw data 1 and 2”, this compound yielded an av puncta of 47054. Further, for the setting “puncta”, the “raw data 1” value is recorded as 60066.9 and the “raw data 2” value was determined as 34041.

In turn, `Cl.NCC(O)c1ccc(O)c(O)c1` (racemic) [DL-Norepinephrine (hydrochloride)] showed an av puncta (average of raw data 1 and 2) of 22344.8. Under “puncta”, the “raw data 1” value turned out to be 29267.2 and the “raw data 2” value was 15422.3.

In the case of `Cc1c(C)c2c(c(C)c1O)CCC(C)(CCCC(C)CCCC(C)CCCC(C)C)O2` (racemic) [DL-alpha-Tocopherol], the “Z repl 1” value is -0.849 and the “Z Repl 2” value was -0.142. The “av Z” value under setting [2] is listed as -0.496. In addition, under setting [3], the av puncta is 13701.5. For the same compound, where the note is “puncta”, the “raw data 1” value is given as 16151.3 and the “raw data 2” value worked out at 11251.7.

`COc1cc(/C=C/C(=O)O[C@H]2C[C@@](O)(C(=O)O)C[C@H](O)[C@@H]2O)ccc1O` (stereo in doubt) [3-Feruloylquinic acid]: the “Z repl 1” value is given as 0.043 and the “Z Repl 2” value is listed as -0.387. Besides, the “av Z” value under setting [1] is reported as -0.172. Further, the av puncta (average of raw data 1 and 2) is recorded as 17749.2. Also, where the note is “puncta”, the “raw data 1” value was 26861 and the “raw data 2” value is 8637.46.

On to `O=C(O[C@H](Cc1ccc(O)c(O)c1)C(=O)O)C1=Cc2cc(O)c(O)cc2[C@H](c2ccc(O)c(O)c2)[C@H]1C(=O)OC(Cc1ccc(O)c(O)c1)C(=O)O` (stereo in doubt) [Rabdosiin], for which the “Z repl 1” value was -0.457 and the “Z Repl 2” value is given as -0.234. Under setting [2], the “av Z” value was -0.346. This compound displayed an av puncta under setting [3] of 15561.2. Under “raw puncta”, the “raw data 1” value is 20858.2 and the “raw data 2” value is 10264.2.

As to `CC=C1[C@H](O[C@@H]2O[C@H](CO)[C@@H](O)[C@H](O)[C@H]2O)OC=C(C(=O)OC)[C@H]1CC(=O)OC[C@H]1O[C@@H](OCCc2ccc(O)cc2)[C@H](O)[C@@H](O)[C@@H]1O` (stereo in doubt) [Specneuzhenide], the “Z repl 1” value is recorded as -0.904 and the “Z Repl 2” value turned out to be 0.064. Further, the “av Z” value under setting [2] was -0.42. Moreover, the av puncta under setting [3] was 14474.2. In addition, under “raw puncta”, the “raw data 1” value was determined as 15493.9 and the “raw data 2” value is reported as 13454.5.

Turning to `O=C(OC[C@H]1OC(OC(=O)c2cc(O)c(O)c(O)c2)[C@H](OC(=O)c2cc(O)c(O)c(O)c2)[C@@H](OC(=O)c2cc(O)c(O)c(O)c2)[C@@H]1O)c1cc(O)c(O)c(O)c1` (stereo partly drawn) [1,2,3,6-Tetragalloylglucose], the “Z repl 1” value was -1.751 and the “Z Repl 2” value is -1.021. In addition, the “av Z” value under setting [2] was -1.386. Further, for the setting “average of raw data 1 and 2”, the av puncta came to 3594.24. In addition, where the note is “puncta”, the “raw data 1” value turned out to be 5324.12 and the “raw data 2” value worked out at 1864.38.

`Oc1ccc(O)c(O)c1` [1,2,4-Trihydroxybenzene]: the “AvZ (average z score of seeding, SDs from the mean level of seeding)” value (“AvZ” for short) is -1.385; the “Z repl 1” value was -1.617; the “Z Repl 2” value is listed as -1.152. For the same compound, where the note is “average of raw data 1 and 2”, the av puncta is listed as 3698. Moreover, for the setting “puncta”, the “raw data 1” value turned out to be 6931.48 and the “raw data 2” value was 464.513.

Turning to `O=C(C=Cc1ccc(O)c(O)c1)OC1CC(OC(=O)C=Cc2ccc(O)c(O)c2)(C(=O)O)CC(O)C1O` (stereo not drawn) [1,3-Dicaffeoylquinic acid], the “Z repl 1” value is given as -1.077 and the “Z Repl 2” value is given as -0.588. The “av Z” value under setting [2] is listed as -0.832. Also, the av puncta (average of raw data 1 and 2) amounted to 9954.06. Moreover, for the setting “puncta”, the “raw data 1” value is 13417.7 and the “raw data 2” value is listed as 6490.43.

`Oc1cccc2ccccc12` [1-Naphthol]: the “Z repl 1” value was 1.606 and the “Z Repl 2” value was found to be 0.927. Further, the “av Z” value under setting [5] came to 1.267. The av puncta (average of raw data 1 and 2) is 34150.6. Besides, under “puncta”, the “raw data 1” value came out at 45632.1 and the “raw data 2” value is on record as 22669.1.

Take `O=C(O[C@H]1[C@H](Oc2c(-c3ccc(O)c(O)c3)oc3cc(O)cc(O)c3c2=O)O[C@H](CO)[C@H](O)[C@@H]1O)c1cc(O)c(O)c(O)c1` [2""-O-Galloylhyperin]: the “Z repl 1” value is given as -0.93 and the “Z Repl 2” value is reported as -0.817. Under setting [2], the “av Z” value was -0.873. The compound also showed an av puncta (average of raw data 1 and 2) of 9615.07. Under “puncta”, the “raw data 1” value was found to be 15187.3 and the “raw data 2” value amounted to 4042.85.

As for `CC(=O)c1ccc(C)cc1O` [2'-Hydroxy-4'-methylacetophenone], the “AvZ” value is on record as -0.002; the “Z repl 1” value was 0.483; the “Z Repl 2” value is on record as -0.487. Also, under “average of raw data 1 and 2”, the av puncta is given as 19854.9. Further, under “puncta”, the “raw data 1” value came out at 32144.5 and the “raw data 2” value is recorded as 7565.33.

Regarding `O=C(O)c1ccc(O)c(O)c1O` [2,3,4-Trihydroxybenzoic acid], the “AvZ” value is -0.363; the “Z repl 1” value is on record as -0.335; the “Z Repl 2” value is given as -0.39. The av puncta under setting [3] is reported as 15461.1. For the setting “raw puncta”, the “raw data 1” value amounted to 22324.8 and the “raw data 2” value is reported as 8597.33.

As for `COc1ccc(C(C)=O)c(O)c1O` [2,3-Dihydroxy-4-methoxyacetophenone], the “AvZ” value came to 0.13; the “Z repl 1” value is 0.385; the “Z Repl 2” value is -0.124. In addition, the av puncta (average of raw data 1 and 2) was 21205.2. For the same compound, under “puncta”, the “raw data 1” value worked out at 30969.9 and the “raw data 2” value turned out to be 11440.6.

Consider `O=C(O)c1ccc(O)cc1O` [2,4-Dihydroxybenzoic acid], for which the “AvZ” value is 0.126; the “Z repl 1” value is listed as 0.635; the “Z Repl 2” value is listed as -0.383. For the setting “average of raw data 1 and 2”, the av puncta is given as 21320.5. Moreover, under “puncta”, the “raw data 1” value came to 33969.7 and the “raw data 2” value was 8671.41.

Turning to `CC(=O)c1cc(O)ccc1O` [2,5-Dihydroxyacetophenone], the “AvZ” value is -0.464; the “Z repl 1” value is listed as -0.264; the “Z Repl 2” value is reported as -0.663. The compound also had an av puncta under setting [3] of 14429.3. Further, for the setting “puncta”, the “raw data 1” value stood at 23175.8 and the “raw data 2” value is recorded as 5682.84.

For `Oc1c(Br)cccc1Br` [2,6-Dibromophenol], the “AvZ” value is -0.18; the “Z repl 1” value is -0.611; the “Z Repl 2” value was 0.25. In addition, the av puncta (average of raw data 1 and 2) is given as 17229.5. Where the note is “puncta”, the “raw data 1” value is 19019.6 and the “raw data 2” value was determined as 15439.4.

Take `O=C(O)c1c(O)cccc1O` [2,6-Dihydroxybenzoic acid]: the “AvZ” value came to 0.715; the “Z repl 1” value stood at 0.475; the “Z Repl 2” value is 0.955. Where the note is “average of raw data 1 and 2”, this compound returned an av puncta of 27508.9. Further, under “puncta”, the “raw data 1” value is on record as 32047.3 and the “raw data 2” value stood at 22970.5.

`Cc1cc(O)cc(C)c1O` [2,6-Dimethylhydroquinone]: the “AvZ” value is recorded as 0.003; the “Z repl 1” value was determined as 0.44; the “Z Repl 2” value was -0.434. Besides, the av puncta (average of raw data 1 and 2) was determined as 19881.8. For the setting “puncta”, the “raw data 1” value is reported as 31637.3 and the “raw data 2” value is reported as 8126.32.

On to `CCc1cccc(C)c1O` [2-Ethyl-6-methylphenol], for which the “AvZ” value is listed as 0.167; the “Z repl 1” value came to 0.346; the “Z Repl 2” value is -0.011. The av puncta (average of raw data 1 and 2) is 21574.5. Further, under “puncta”, the “raw data 1” value was 30502.1 and the “raw data 2” value stood at 12646.9.
